# Source: patent publication US20210322582A1, “RADIOACTIVE IMIDAZOTHIADIAZOLE DERIVATIVE COMPOUND” (Nihon Medi-Physics Co., Ltd., priority 2018, published 2021)
# System: HT-29-transplanted tumor
# Experiment: Biodistribution of [^111In]ITDA3 in HT-29 cancer-bearing mouse
# Format: in vivo
# Conditions: for Accumulation of radioactivity: Blood / Accumulation of radioactivity: Brain / Accumulation of radioactivity: HT-29 tumor / Accumulation of radioactivity: Heart / Accumulation of radioactivity: Intestines / Accumulation of radioactivity: Kidney / Accumulation of radioactivity: Liver / Accumulation of radioactivity: Lungs / Accumulation of radioactivity: Muscle / Accumulation of radioactivity: Pancreas / Accumulation of radioactivity: Spleen / Accumulation of radioactivity: Stomach / Tumor/blood / Tumor/muscle: HT-29 mouse
# Method: HT-29 cells and MDA-MB-231 cells (5×10^6 cells/mouse) were subcutaneously inoculated into the left shoulders of 5-week old male BALB/c nude mice, respectively. A saline solution (100 μL) in which[^111In]ITDA3 (40 kBq) had been dissolved was administered to each of the cancer-bearing mice (n=5) via the tail vein. The HT-29 cancer-bearing mice were slaughtered after the lapse of 1, 4, and 24 hours from the administration, the MDA-MB-231 cancer-bearing mouse was slaughtered after the lapse of 24 hours from the administration, and the blood, spleen, pancreas, stomach, intestines, kidney, liver, heart, lungs, brain, HT-29 or MDA-MB-231-transplanted tumor, and muscle were recovered from each of the mice. The weight of each organ was measured, and the amount of radioactivity in each organ was measured by using a gamma counter. The accumulation of radioactivity in each organ except for stomach was expressed by % ID (injected dose)/g obtained by dividing the ratio of the amount of radioactivity of each organ to the administered amount of radioactivity by the organ weight. The stomach was expressed by % ID (injected dose).
compound,measurement,setting,value
NS(=O)(=O)c1nn2cc(-c3ccc(NC(=O)CCC(C(=O)O)N4CCN(CC(=O)[O-])CCN(CC(=O)[O-])CCN(CC(=O)[O-])CC4)cc3)nc2s1.[111In+3] (centres unmarked) [[^111In]ITDA3],Accumulation of radioactivity: Blood,1 hour after administration,0.09 ± 0.01 % ID/g
same,Accumulation of radioactivity: Brain,1 hour after administration,0.27 ± 0.05 % ID/g
same,Accumulation of radioactivity: HT-29 tumor,1 hour after administration,1.60 ± 0.16 % ID/g
same,Accumulation of radioactivity: Heart,1 hour after administration,6.91 ± 0.32 % ID/g
same,Accumulation of radioactivity: Intestines,1 hour after administration,8.33 ± 0.44 % ID/g
same,Accumulation of radioactivity: Kidney,1 hour after administration,95.81 ± 9.44 % ID/g
same,Accumulation of radioactivity: Liver,1 hour after administration,8.42 ± 1.42 % ID/g
same,Accumulation of radioactivity: Lungs,1 hour after administration,3.58 ± 0.86 % ID/g
same,Accumulation of radioactivity: Muscle,1 hour after administration,2.47 ± 0.45 % ID/g
same,Accumulation of radioactivity: Pancreas,1 hour after administration,14.89 ± 3.20 % ID/g
same,Accumulation of radioactivity: Spleen,1 hour after administration,0.13 ± 0.20 % ID/g
same,Accumulation of radioactivity: Stomach,1 hour after administration,1.80 ± 0.27 % ID
same,Tumor/blood,1 hour after administration,18.89 ± 2.68
same,Tumor/muscle,1 hour after administration,0.66 ± 0.09
same,Accumulation of radioactivity: Blood,4 hours after administration,0.06 ± 0.01 % ID/g
same,Accumulation of radioactivity: Brain,4 hours after administration,0.26 ± 0.04 % ID/g
same,Accumulation of radioactivity: HT-29 tumor,4 hours after administration,1.71 ± 0.28 % ID/g
same,Accumulation of radioactivity: Heart,4 hours after administration,2.87 ± 0.36 % ID/g
same,Accumulation of radioactivity: Intestines,4 hours after administration,7.2 ± 1.53 % ID/g
same,Accumulation of radioactivity: Kidney,4 hours after administration,80.09 ± 5.11 % ID/g
same,Accumulation of radioactivity: Liver,4 hours after administration,6.51 ± 1.50 % ID/g
same,Accumulation of radioactivity: Lungs,4 hours after administration,2.24 ± 0.44 % ID/g
same,Accumulation of radioactivity: Muscle,4 hours after administration,1.88 ± 0.13 % ID/g
same,Accumulation of radioactivity: Pancreas,4 hours after administration,6.2 ± 0.78 % ID/g
same,Accumulation of radioactivity: Spleen,4 hours after administration,0.04 ± 0.03 % ID/g
same,Accumulation of radioactivity: Stomach,4 hours after administration,0.83 ± 0.11 % ID
same,Tumor/blood,4 hours after administration,28.6 ± 3.24
same,Tumor/muscle,4 hours after administration,0.92 ± 0.15
same,Accumulation of radioactivity: Blood,24 hours after administration,0.06 ± 0.01 % ID/g
same,Accumulation of radioactivity: Brain,24 hours after administration,0.33 ± 0.07 % ID/g
same,Accumulation of radioactivity: HT-29 tumor,24 hours after administration,3.02 ± 0.37 % ID/g
same,Accumulation of radioactivity: Heart,24 hours after administration,2.00 ± 0.38 % ID/g
same,Accumulation of radioactivity: Intestines,24 hours after administration,11.11 ± 0.85 % ID/g
same,Accumulation of radioactivity: Kidney,24 hours after administration,70.19 ± 9.28 % ID/g
same,Accumulation of radioactivity: Liver,24 hours after administration,4.92 ± 1.01 % ID/g
same,Accumulation of radioactivity: Lungs,24 hours after administration,1.20 ± 0.15 % ID/g
same,Accumulation of radioactivity: Muscle,24 hours after administration,1.63 ± 0.79 % ID/g
same,Accumulation of radioactivity: Pancreas,24 hours after administration,3.85 ± 0.68 % ID/g
same,Accumulation of radioactivity: Spleen,24 hours after administration,0.08 ± 0.05 % ID/g
same,Accumulation of radioactivity: Stomach,24 hours after administration,0.48 ± 0.04 % ID
same,Tumor/blood,24 hours after administration,52.06 ± 6.11
same,Tumor/muscle,24 hours after administration,2.08 ± 0.67
same,Amount of tumor accumulation compared with [^111In]ITDA1,from Table 5,lower than that of [^111In]ITDA1
same,"Amounts of accumulation in normal tissues (in particular, pancreas, stomach, intestines, and lungs)",from Table 5,small
